# Laboratory results: WO2020158863A1, “Combined drug of anthracycline compound-containing micelle preparation with immunostimulant” (priority 2019, dated 2020)
# Structures can show the parent of a compound that is named as a salt.
# Key:
# [1] = tested on: GL261 cells; assay: ICD marker expression on cell surface, flow cytometry, GL261 cells; assay type: cell-based, mouse; conditions: 24 h; negative control; Fig. 8G
# [2] = tested on: mouse pancreatic cancer cells KPC; assay: IC50 for mouse pancreatic cancer cells KPC (Experimental Example 13-1); assay type: cell-based; conditions: Pancreatic cancer cell
# [3] = tested on: KPC cells; assay: ICD marker expression, flow cytometry, KPC cells (Experimental Example 13-2); assay type: cell-based, mouse; conditions: 24 h, Fig. 21; for HSP70 level / HSP90 level / calreticulin level: 1 μg/mL or 5 μg/mL
# [4] = tested on: mouse glioblastoma (GBM) cells GL261; assay: in vitro cytotoxicity assay (Experimental Example 3); assay type: cell-based; conditions: 3 h exposure, 48 h incubation; Fig. 3
# [5] = tested on: GL261 cells; assay: Cytotoxic activity (IC50), GL261 cells (Experimental Example 6)
# [6] = tested on: CT2A cells; assay: Cytotoxic activity (IC50), CT2A cells (Experimental Example 6); assay type: cell-based, mouse; conditions: PTEN-negative; 48 h; Fig. 8F
# [7] = tested on: GL261-luc tumor; assay: Orthotopic GL261-luc tumor in wild type mice (Experimental Example 7-1); assay type: in vivo, mouse; conditions: wild type C57/BL6; 5 mg/kg Epi equivalent
# [8] = tested on: GL261-luc tumor; assay: Orthotopic GL261-luc tumor in nude mice (Experimental Example 7-1); assay type: in vivo, mouse; conditions: nude BALB/c; 5 mg/kg Epi equivalent
# [9] = tested on: PD-L1; assay: PD-L1 expression in CT2A tumors, flow cytometry (Experimental Example 10); assay type: in vivo, mouse; conditions: 8 days after single tail vein injection, 6 mg/kg Epi equivalent; Fig. 16
# [10] = tested on: various cancer cells (MCA205, AB12, GL261, CT2A, LL2, C26); assay: IC50 against various cancer cells (Experimental Example 11-1); assay type: cell-based
# [11] = tested on: fibrosarcoma cell carcinoma line (MCA205, Sarcoma180, NIH3T3, HT1080); assay: IC50 against fibrosarcoma cell lines (Experimental Example 12-1); assay type: cell-based
structure (smiles),measurement,setting,value
"[NH2][Pt]([NH2])([Cl])[Cl] [CDDP, Cisplatin]",ICD marker level,[1],did not significantly increase the marker
"COc1cccc2c1C(=O)c1c(O)c3c(c(O)c1C2=O)C[C@@](O)(C(=O)CO)C[C@@H]3O[C@H]1C[C@H](N)[C@H](O)[C@H](C)O1 [DOX, doxorubicin hydrochloride]",IC50,[2],≤ 2 µg/mL
same,HSP70 level,[3],significantly increased
same,HSP90 level,[3],significantly increased
same,calreticulin level,[3],significantly increased
"COc1cccc2c1C(=O)c1c(O)c3c(c(O)c1C2=O)C[C@@](O)(C(=O)CO)C[C@@H]3O[C@H]1C[C@H](N)[C@@H](O)[C@H](C)O1 [Epi, Epirubicin hydrochloride]",in vitro cytotoxicity,[4],high in vitro cytotoxicity
same,IC50,"[5]; Mus musculus, GL261, 48 h",< 1 µg/mL
same,cytotoxic activity,"[5]; PTEN-positive, 48 h, Fig. 8E",high cytotoxic activity
same,cytotoxic activity,[6],"high activity against PTEN-negative CT2A cells, comparable to the activity against GL261 cells"
same,tumor growth rate / tumor-derived luminescence,[7],the tumor growth rate was not suppressed
same,tumor growth rate,[8],the tumor growth rate was not suppressed
same,expression level of PD-L1 in tumor cells,[9],no such reduction in expression levels occurred
same,IC50,[10],≤ 1 µg/mL
same,IC50,[11],≤ 2 µg/mL
same,HSP70 level,[3],significantly increased
same,HSP90 level,[3],significantly increased
same,calreticulin level,[3],significantly increased
CCc1c2c(nc3ccc(OC(=O)N4CCC(N5CCCCC5)CC4)cc13)-c1cc3c(c(=O)n1C2)COC(=O)[C@]3(O)CC [irinotecan],ICD marker level,[3]; any concentration,did not significantly increase the marker at any concentration
